Experimental findings from US10077288B2, “Hydroxystatin derivatives for the treatment of arthrosis” (Merck Patent GmbH, priority 2012, dated 2018) are described below.

Data set [1] in a line: Stability in bovine synovial fluid. The class given is in vitro ADME. The conditions noted are these: 1 μM, up to 48 h at 37° C. The protocol: EXAMPLE 7: STABILITY OF THE COMPOUNDS ACCORDING TO THE INVENTION IN BOVINE SYNOVIAL FLUID
In the preparation of bovine explants (for the diffusion chamber or other assays), either cow hoof (metacarpal joints) or cow knee is used. The synovial fluid can be obtained from both joints. To this end, the synovial fluid is carefully removed from the open joint using a 10 ml syringe and a cannula and transferred into prepared 2 ml Eppendorf vessels. The Eppendorf vessels are labelled depending on the animal (cow passport is available). […] If this is the case, the synovial fluid will become a reddish colour and must consequently be discarded. The synovial fluid is basically highly viscous and clear to yellowish in colour. The removal together with a macroscopic analysis of the synovial fluid is documented.
In order to check the stability of individual compounds, a pool of four different bovine synovial fluids is mixed. To this end, about 1 ml per SF is used. The mixture is prepared directly in a 5 ml glass vessel. The SFs are mixed thoroughly, but carefully. No air bubbles or foam should form. To this end, a vortex unit is used at the lowest speed. The compounds to be tested are tested in an initial concentration (unless required otherwise) of 1 μM. After addition of the substance, the batch is again mixed thoroughly and carefully. For visual monitoring, all SF batches are photographed, and the pictures are filed in the eLabBio file for the corresponding experiment. […] The batches are incubated in the incubator for 48 h at 37° C. and 7.5% CO2.
The sampling is carried out after the pre-agreed times (unless required otherwise, see below). 200 μl of the SF are removed from the mixture per time and transferred directly into a 0.5 ml “low-binding” Eppendorf vessel. […]
The concentrations measured (ng/ml) are plotted against the time in a graph (GraphPad Prism®). The percentage stability of the substance is determined here. […]
All compounds measured remained stable (see Table 2 in Example 1).

Data set [2] deals with bovine explants (cartilage degradation, liberation of GAG). In words: Cartilage explant assay: pH-induced cartilage degradation, GAG release. It counts as cell-based. The conditions noted are these: Bos taurus, 72 h, pH 5.5, 3 days. The source says:
EXAMPLE 5: CARTILAGE EXPLANT ASSAY
In order to investigate the effect of potential cathepsin D inhibitors on cartilage degradation, a pH-induced model based on bovine explants is used. The pH of the medium in which the explants are cultivated is matched here to the pathophysiological pH of an arthrotic knee. This pH is pH 5.5. In this ex vivo model, potential cathepsin D inhibitors are subsequently investigated for their action with respect to stopping of the cartilage degradation process. If the cartilage is destroyed, glycosaminoglycans (GAGs) are released into the cell culture supernatant. The amount of GAGs liberated can be determined quantitatively with the aid of DMMB (dimethylmethylene blue hydrochloride). If sulfated GAGs are detected using dimethylmethylene blue hydrochloride, the decrease in the absorption at 633 nm is utilised. […] In order to determine the concentration, a calibration line is also recorded using chondroitin sulfate.
1.) Procedure: pH-Induced Cartilage Degradation of Bovine Explants
The bovine explants are firstly prepared. The induction of the cartilage degradation is carried out in 96-multiwell plates. One explant is cultivated per well. In each case, 200 μl of DMEM (incubation medium pH 5.5) without FBS+30 μg/ml of ascorbic acid are added. Thus negative control, explants (n=4) are incubated at pH 7.4 (without FBS). This control is not included in the calculation of the data, but instead ensures that the pH change has the desired effect on the liberation of GAG. At this point, the substances to be tested are added. No pre-incubation of the explants is carried out. The explants are cultivated with the corresponding substances for 3 days in the incubator at 37° C. and 7.5% CO2.
In order to investigate the effect of cathepsin D inhibitors on the liberation of GAG (glycosaminoglycan), the substances are employed in the desired concentration and cultivated for 3 days. The compounds to be tested are tested in a first experiment in a concentration of 1 μM and 1% of DMSO. Substances which have an effect of >50% on the liberation of GAG (this corresponds to <50% of the control in the Assay Explorer) are tested in the next experiment at 100 nM and 1% of DMSO. Substances which have an effect of >50% on the liberation of GAG under these conditions (this corresponds to <50% of the control in the Assay Explorer) are tested in a concentration/effect relationship. The compounds here are investigated in the following concentrations: 30 μM, 10 μM, 3 μM, 1 μM, 0.3 μM, 0.1 μM, 0.03 μM, 0.01 μM.
The positive control used is pepstatin A with a concentration of 0.01 μM. The assay window is defined by the control (pH 5.5), defined as 0% effect, and the control pH 5.5+0.01 μM pepstatin A, defined as 100% effect. After incubation for 3 days, the cell culture supernatants are collected and stored at −20° C. or measured directly. The amount of liberated GAG is measured photometrically.
The effect (1 value) of the respective substance in % based on the positive control (pH 5.5+0.01 μM pepstatin A) and the negative control (pH 5.5) is reported for concentrations of 1 μM and 100 nM. The value represents the average of 4 replicants. In the determination of a concentration/effect relationship, an IC50 value is reported to the database (Assay Explorer).
The cell culture supernatants (200 μl) are either measured directly or stored at −20° C. […] A rapid colour reaction occurs, which is subsequently measured at 633 nm using a plate reader (for example Envision). […]

pIC50: −log10 of the molar value.

As a reminder, the pIC50 is the negative decadic logarithm of the IC50, by convention in mol/L. As for `CC[C@H](C)[C@H](NC(=O)C[C@H](O)[C@H](Cc1ccccc1)NC(=O)[C@@H](NC(=O)CCc1ccccc1)C(C)C)C(=O)N[C@H](C(=O)O)C(C)C` [Compound 4, (S)-2-((2S,3S)-2-{(3S,4S)-3-hydroxy-4-[(S)-3-methyl-2-(3-phenyl-propionylamino)butyrylamino]-5-phenylpentanoylamino}-3-methylpentanoylamino)-3-methylbutyric acid], the “Stability in synovial fluid” value in data set [1] is “stable”. Also, the negative-log IC50 (pIC50) in data set [2] was 7.22.
Taken in the same sequence, the figures for `CC[C@H](C)[C@H](NC(=O)C[C@H](O)[C@H](Cc1ccccc1)NC(=O)[C@@H](NC(=O)Cc1cccc(OC)c1)C(C)C)C(=O)N[C@H](C(=O)O)C(C)C` [Compound 20, (S)-2-[(2S,3S)-2-((3S,4S)-3-hydroxy-4-{(S)-2-[2-(3-methoxyphenyl)-acetylamino]-3-methylbutyrylamino}-5-phenylpentanoylamino)-3-methylpentanoylamino]-3-methylbutyric acid] were “stable” and 7.32.
The corresponding values for `CC[C@H](C)[C@H](NC(=O)C[C@H](O)[C@H](Cc1ccccc1)NC(=O)[C@@H](NC(=O)CCCc1ccccc1)C(C)C)C(=O)N[C@H](C(=O)O)C(C)C` [Compound 5, (S)-2-((2S,3S)-2-{(3S,4S)-3-hydroxy-4-[(S)-3-methyl-2-(4-phenyl-butyrylamino)butyrylamino]-5-phenylpentanoylamino}-3-methylpentanoylamino)-3-methylbutyric acid] are “stable” and 6.00.
